Laboratory results reported in patent US11541050B2, “Pyrimidine derivatives for the treatment of viral infections” (JANSSEN SCIENCES IRELAND UC, priority 2011, dated 2023).

Experiments:
[1] = tested on: human TLR8 mutant sequence comprising a deletion in the second leucine-rich repeat; experiment: TLR8 cellular NFκB-luc reporter assay, mutant TLR8 with deletion in the second leucine-rich repeat; type: cell-based; design: unit not given here; details: lowest effective concentration, TLR8 mutant with deletion in second leucine-rich repeat
Method in brief: (§1)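 HEK293 cells transiently co-transfected with CMV-driven mutant TLR7 or TLR8 plasmid plus NFκB-luc reporter, cultured 48 h at 37 °C, then exposed to compound for 6 h at 37 °C, 5% CO2. Luciferase luminescence measured; dose-response curves from quadruplicates.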

[2] = tested on: human TLR7 mutant sequence comprising a deletion in the second leucine-rich repeat; experiment: TLR7 cellular NFκB-luc reporter assay, mutant TLR7 with deletion in the second leucine-rich repeat; type: cell-based; design: unit not given here; details: lowest effective concentration, TLR7 mutant with deletion in second leucine-rich repeat
Method in brief: as §1

[3] = target: T1, human TLR8 (wild type sequence) (Homo sapiens, UniProt Q9NR97); experiment: TLR8 cellular NFκB-luc reporter assay, wild type TLR8; type: cell-based; design: unit not given here; details: lowest effective concentration, wild type TLR8 (compounds 1-73)
T1 construct: expressed in transfected cells; host or cells: HEK293
T1 sequence (Q9NR97 27-1041): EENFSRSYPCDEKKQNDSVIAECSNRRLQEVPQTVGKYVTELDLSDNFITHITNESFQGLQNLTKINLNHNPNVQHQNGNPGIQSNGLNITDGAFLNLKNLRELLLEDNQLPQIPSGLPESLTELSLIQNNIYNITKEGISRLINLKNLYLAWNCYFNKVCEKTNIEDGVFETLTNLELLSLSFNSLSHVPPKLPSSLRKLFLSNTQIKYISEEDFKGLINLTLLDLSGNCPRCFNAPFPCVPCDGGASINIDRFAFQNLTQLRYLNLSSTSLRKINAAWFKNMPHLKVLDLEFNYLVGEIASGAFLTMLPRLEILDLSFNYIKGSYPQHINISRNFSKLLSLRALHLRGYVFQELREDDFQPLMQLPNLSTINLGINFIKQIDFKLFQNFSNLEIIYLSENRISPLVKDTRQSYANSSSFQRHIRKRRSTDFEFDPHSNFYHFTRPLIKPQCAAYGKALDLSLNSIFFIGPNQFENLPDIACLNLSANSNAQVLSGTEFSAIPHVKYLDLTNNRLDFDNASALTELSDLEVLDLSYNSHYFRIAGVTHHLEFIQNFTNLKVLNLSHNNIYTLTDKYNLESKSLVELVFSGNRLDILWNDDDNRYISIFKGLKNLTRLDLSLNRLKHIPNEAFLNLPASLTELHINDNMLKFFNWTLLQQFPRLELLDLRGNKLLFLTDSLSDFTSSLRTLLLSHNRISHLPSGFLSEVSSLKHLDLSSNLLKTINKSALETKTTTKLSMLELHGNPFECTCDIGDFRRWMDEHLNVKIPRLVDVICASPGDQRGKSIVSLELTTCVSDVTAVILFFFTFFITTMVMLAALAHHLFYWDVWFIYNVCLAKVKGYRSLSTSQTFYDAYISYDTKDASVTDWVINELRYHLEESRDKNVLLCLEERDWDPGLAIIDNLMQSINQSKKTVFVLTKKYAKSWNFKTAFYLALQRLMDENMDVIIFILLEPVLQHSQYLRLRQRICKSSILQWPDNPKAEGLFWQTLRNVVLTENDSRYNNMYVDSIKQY
Method in brief: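 Luciferase signal read after 6 h compound incubation at 37 °C in HEK293 cells carrying transiently transfected TLR7 or TLR8 (wild type or LRR2-deletion) and NFκB-luc. Values are lowest effective concentrations from quadruplicate dose-response curves, effect ≥2-fold above assay SD.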

[4] = tested on: HCV replicon in Huh-7 luc/neo cells; experiment: Suppression of HCV replicon replication by conditioned media from compound-treated PBMC; type: cell-based, HCV type 1 b; details: Hepatitis C virus, Huh-7; read-out: PBMC-HUH7_EC50
Method in brief: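 Readout is firefly luciferase from an HCV genotype 1b NS3-NS5B bicistronic replicon in Huh-7 cells, measured 24 h after adding conditioned medium. That medium came from overnight culture of compound-treated PBMC (2×10^5/well, human AB serum, at least two donors). Interferon α-2a was the reference.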

| SMILES | TLR8-dIRR2_LEC [1] | TLR7-dIRR2_LEC [2] | TLR8-wt_LEC [3] | EC50 [4] |
| --- | --- | --- | --- | --- |
| CCCCNc1nc(N)ncc1OCc1cccnc1 [Compound 22] | 0.94 | 0.31 | 2.35 | 250 nM |
| CCCCNc1nc(N)ncc1OCc1cc(C)no1 [Compound 26] | 1.52 | 0.49 | 3.90 | 580 nM |
| CCCCNc1nc(N)ncc1OCc1cncn1-c1ccccc1C [Compound 50] | >25 | 0.51 | >25 | 780 nM |
| CCCCNc1nc(N)ncc1OCc1cccc(C(=O)OC)c1 [Compound 23] | 1.45 | 0.26 | 2.55 | 10800 nM |
| CCCCNc1nc(N)ncc1OCc1cc(-c2ccc(F)cc2)on1 [Compound 33] | 1.17 | 0.36 | 1.78 | 1480 nM |
| CCCCNc1nc(N)nc(C)c1Oc1ccccc1OC [Compound 7] | 3.03 | 1.11 | 5.84 | 3110 nM |
| CCCCNc1nc(N)nc(C)c1Oc1ccccc1 [Compound 3] | 1.66 | 21.69 | 4.91 | 10800 nM |
| CCCCCCCCOc1cnc(N)nc1NCCCC [Compound 40] | >25 | 2.69 | >25 |  |
| CCCCNc1nc(N)ncc1OCC1CC1 [Compound 39] | 7.10 | 3.01 | 14.41 |  |
| CCCCNc1nc(N)ncc1OCCCC [Compound 10] | 2.82 | 1.28 | 8.14 | 1580 nM |
| CCCCNc1nc(N)ncc1OCc1occc1C(=O)OC [Compound 45] | 0.40 | 0.17 | 0.58 | 170 nM |
| CCCCNc1nc(N)ncc1OCCCO [Compound 24] | 1.50 | 1.99 | 2.42 | 2750 nM |
| CCCCNc1nc(N)ncc1OCc1ccc(C(=O)OC)cc1OC [Compound 44] | 1.96 | 0.16 | 3.11 | 590 nM |
| CCCCNc1nc(N)ncc1Oc1ccccc1 [Compound 71] | >24.59 | >24.59 | >24.59 | 4960 nM |
| CCCCNc1nc(N)ncc1OCc1cc(F)c(F)cc1OC [Compound 53] | 2.15 | 0.64 | 3.06 | 600 nM |
| C=CCCOc1cnc(N)nc1NCCCC [Compound 16] | 0.59 | 0.49 | 2.68 | 790 nM |
| CCCCNc1nc(N)ncc1OC(C)c1ccccc1 (stereo not drawn) [Compound 69] | 2.22 | 3.75 | 6.43 | 6160 nM |
| CCCCNc1nc(N)ncc1OCc1ccccc1Cl [Compound 15] | 1.06 | 0.17 | 2.31 | 170 nM |
| CCCCNc1nc(N)ncc1OCc1cncn1C(C)c1ccccc1 (stereo not drawn) [Compound 37] | 5.69 | 0.04 | 9.22 | 120 nM |
| CCCCNc1nc(N)ncc1OCc1ccccc1OC(F)(F)F [Compound 43] | 1.66 | 0.08 | 8.22 | 790 nM |
| CCCCNc1nc(N)ncc1OCCCC(N)=O [Compound 28] | 6.99 | 2.47 | 9.18 | 1750 nM |

| SMILES | TLR8-dIRR2_LEC [1] | TLR7-dIRR2_LEC [2] | TLR8-wt_LEC [3] | EC50 [4] |
| --- | --- | --- | --- | --- |
| C=CCCCCOc1cnc(N)nc1NCCCC [Compound 20] | 2.87 | 0.79 | 10.21 | 1330 nM |
| CCCCNc1nc(N)ncc1OCCN1CCOCC1 [Compound 27] | 0.64 | 0.78 | 5.36 | 1030 nM |
| CCCCNc1nc(N)ncc1OCc1occc1C(=O)OCC [Compound 47] | 0.66 | 0.20 | 1.87 | 330 nM |
| CCCCNc1nc(N)ncc1OCCc1ccccc1 [Compound 13] | 5.23 | 2.26 | 13.18 | 2530 nM |
| CCCCNc1nc(N)ncc1OCc1cccc(C(F)(F)F)c1 [Compound 51] | 2.09 | 0.58 | 3.92 | 500 nM |
| CCCCNc1nc(N)ncc1OCc1ccncc1 [Compound 18] | 0.85 | 0.83 | 1.87 | 630 nM |
| CCCCNc1nc(N)ncc1OCc1occ(C(=O)OC)c1C(=O)OC [Compound 49] | 2.07 | 0.31 | 3.72 | 550 nM |
| CCCCNc1nc(N)ncc1OCc1ccccc1F [Compound 8] | 0.81 | 0.38 | 1.88 | 370 nM |
| CCCCNc1nc(N)ncc1OCc1cc(C)on1 [Compound 52] | 1.65 | 0.63 | 3.61 | 260 nM |
| CCCCNc1nc(N)ncc1OCCCC#N [Compound 29] | 1.19 | 1.32 | 2.86 | 2970 nM |
| CCCCNc1nc(N)ncc1OCc1ccccc1-c1ccccc1 [Compound 25] | >25 | 0.64 | >25 | 1550 nM |
| CCCCNc1nc(N)ncc1OCc1cn2ccccc2n1 [Compound 34] | 0.61 | 0.06 | 0.83 | 50 nM |
| CCCCNc1nc(N)ncc1OCCOC [Compound 17] | 0.67 | 0.34 | 2.03 | 710 nM |
| CCCCNc1nc(N)ncc1OCCOCCOC [Compound 61] | 1.56 | 1.38 | 3.59 | 1910 nM |
| CCCCNc1nc(N)ncc1OCc1ccc(C(=O)OCC)o1 [Compound 46] | 1.96 | 0.19 | 3.85 | 2510 nM |
| CCCCNc1nc(N)ncc1OCc1ncc(C)c(OC)c1C [Compound 6] | 0.10 | 0.01 | 0.16 | 20 nM |
| CCCCNc1nc(N)ncc1OCCN [Compound 30] | 1.16 | >25 | 6.44 | 9070 nM |
| CCCCNc1nc(N)ncc1OCc1ccccc1C [Compound 14] | 0.91 | 0.91 | 4.92 | 1810 nM |
| CCCCNc1nc(N)ncc1OCc1ccc(Cl)c(Cl)c1 [Compound 11] | 3.50 | 0.60 | 4.52 | 780 nM |
| CCCCNc1nc(N)ncc1OCCC(C)C [Compound 9] | 9.70 | 1.55 | 19.00 | 9720 nM |
